Experimental data published in the supplement of paper PMC11451515.

Tested on: P12-Ichikawa
Assay: cell viability relative to DMSO control; higher = less cytotoxic
Conditions: 48 h
Summary of the method: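 Leukemia cells (NOMO1 or SEM, 500 cells/well; P12-Ichikawa, 1000 cells/well) were seeded in 5 μl in 1536-well plates after at least four passages of adaptation to each medium. They received library compounds in DMSO by pin dosing, 11 threefold points from 47 μM to 0.79 nM. Luminescence with CellTiter-Glo One was read after 48 h at 37°C. Viability is stated per plate relative to DMSO wells, with cell-free wells as background.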

[1] = HPLM + 10% dialyzed FBS, 0.000781 µM
[2] = HPLM + 10% dialyzed FBS, 0.00234 µM
[3] = HPLM + 10% dialyzed FBS, 0.00702 µM
[4] = HPLM + 10% dialyzed FBS, 0.0211 µM
[5] = HPLM + 10% dialyzed FBS, 0.0632 µM
[6] = HPLM + 10% dialyzed FBS, 0.19 µM
[7] = HPLM + 10% dialyzed FBS, 0.569 µM
[8] = HPLM + 10% dialyzed FBS, 1.71 µM
[9] = HPLM + 10% dialyzed FBS, 5.12 µM
[10] = HPLM + 10% dialyzed FBS, 15.4 µM
[11] = HPLM + 10% dialyzed FBS, 46.1 µM
[12] = RPMI 5 mM glucose + 10% FBS, 0.000781 µM
[13] = RPMI 5 mM glucose + 10% FBS, 0.00234 µM
[14] = RPMI 5 mM glucose + 10% FBS, 0.00702 µM
[15] = RPMI 5 mM glucose + 10% FBS, 0.0211 µM
[16] = RPMI 5 mM glucose + 10% FBS, 0.0632 µM
[17] = RPMI 5 mM glucose + 10% FBS, 0.19 µM
[18] = RPMI 5 mM glucose + 10% FBS, 0.569 µM
[19] = RPMI 5 mM glucose + 10% FBS, 1.71 µM
[20] = RPMI 5 mM glucose + 10% FBS, 5.12 µM
[21] = RPMI 5 mM glucose + 10% FBS, 15.4 µM
[22] = RPMI 5 mM glucose + 10% FBS, 46.1 µM
[23] = RPMI 5 mM glucose + 10% dialyzed FBS, 0.000781 µM
[24] = RPMI 5 mM glucose + 10% dialyzed FBS, 0.00234 µM
[25] = RPMI 5 mM glucose + 10% dialyzed FBS, 0.00702 µM
[26] = RPMI 5 mM glucose + 10% dialyzed FBS, 0.0211 µM
[27] = RPMI 5 mM glucose + 10% dialyzed FBS, 0.0632 µM
[28] = RPMI 5 mM glucose + 10% dialyzed FBS, 0.19 µM
[29] = RPMI 5 mM glucose + 10% dialyzed FBS, 0.569 µM
[30] = RPMI 5 mM glucose + 10% dialyzed FBS, 1.71 µM
[31] = RPMI 5 mM glucose + 10% dialyzed FBS, 5.12 µM
[32] = RPMI 5 mM glucose + 10% dialyzed FBS, 15.4 µM
[33] = RPMI 5 mM glucose + 10% dialyzed FBS, 46.1 µM

| SMILES | cell viability [1] [%] | cell viability [2] [%] | cell viability [3] [%] | cell viability [4] [%] | cell viability [5] [%] | cell viability [6] [%] | cell viability [7] [%] | cell viability [8] [%] | cell viability [9] [%] | cell viability [10] [%] | cell viability [11] [%] | cell viability [12] [%] | cell viability [13] [%] | cell viability [14] [%] | cell viability [15] [%] | cell viability [16] [%] | cell viability [17] [%] | cell viability [18] [%] | cell viability [19] [%] | cell viability [20] [%] | cell viability [21] [%] | cell viability [22] [%] | cell viability [23] [%] | cell viability [24] [%] | cell viability [25] [%] | cell viability [26] [%] | cell viability [27] [%] | cell viability [28] [%] | cell viability [29] [%] | cell viability [30] [%] | cell viability [31] [%] | cell viability [32] [%] | cell viability [33] [%] |
| --- | --- | --- | --- | --- | --- | --- | --- | --- | --- | --- | --- | --- | --- | --- | --- | --- | --- | --- | --- | --- | --- | --- | --- | --- | --- | --- | --- | --- | --- | --- | --- | --- | --- |
| CN(CCOc1ccc(NS(C)(=O)=O)cc1)CCc1ccc(NS(C)(=O)=O)cc1 | 108 | 114 | 119 | 115 | 126 | 127 | 127 | 111 | 118 | 123 | 121 | 118 | 127 | 116 | 126 | 121 | 129 | 131 | 126 | 125 | 136 | 126 | 113 | 114 | 114 | 114 | 117 | 129 | 123 | 122 | 120 | 120 | 115 |
| C=C[C@H]1CN2CCC1C[C@@H]2[C@@H](O)c1ccnc2ccccc12 (some centres not stated) | 101 | 99.5 | 95.9 | 99.6 | 100 | 92.4 | 87.7 | 93.6 | 85.8 | 90.7 | 78.2 | 93.8 | 93.4 | 99.5 | 94.7 | 103 | 90.9 | 86.4 | 92.3 | 90.8 | 83.3 | 67.8 | 101 | 89.4 | 91.7 | 96.6 | 97.2 | 92.6 | 96.5 | 81.7 | 84.5 | 81.8 | 67.9 |
| CC(Cc1ccc(O)c(O)c1)(NN)C(=O)O (configuration not stated) | 110 | 112 | 107 | 111 | 130 | 114 | 105 | 102 | 100 | 101 | 78.5 | 102 | 113 | 122 | 120 | 113 | 111 | 108 | 100 | 112 | 113 | 65.3 | 107 | 116 | 115 | 115 | 114 | 109 | 108 | 104 | 110 | 110 | 55.7 |
| CCCOc1ccc2[nH]c(NC(=O)OC)nc2c1 | 125 | 122 | 107 | 99.4 | 54.5 | 35.3 | 17.2 | 21.8 | 25.3 | 18.8 | 23.2 | – | – | – | – | – | – | – | – | – | – | – | – | – | – | – | – | – | – | – | – | – | – |
| C[C@@H](NCc1cc2ccccc2[nH]1)c1cccc2ccccc12 | 88.5 | 88.8 | 93.4 | 93 | 86.8 | 97 | 95.5 | 97.7 | 90 | 93.4 | 90.2 | 89.1 | 90.2 | 87.5 | 95.9 | 92.9 | 91.3 | 94.8 | 88 | 89.8 | 88.8 | 92.2 | 84.1 | 86.6 | 83.2 | 91.4 | 77.3 | 84.7 | 85.5 | 92.6 | 88.5 | 90.7 | 89.5 |
| CC(C)C(=O)Nc1ncc(-c2cc(C(F)F)nn2-c2c(Cl)cccc2Cl)s1 | 122 | 122 | 117 | 120 | 126 | 136 | 129 | 131 | 134 | 132 | 63.5 | – | – | – | – | – | – | – | – | – | – | – | – | – | – | – | – | – | – | – | – | – | – |
| O=C1CCC[C@@H]2[C@H]3CCC[N+]4([O-])CCC[C@@H](CN12)[C@@H]34 (some centres not stated) | 88.3 | 89.2 | 100 | 102 | 98.8 | 92.9 | 105 | 102 | 89.5 | 98.6 | 97.7 | 83.5 | 80.8 | 89.7 | 95.1 | 95.5 | 97.2 | 87.7 | 94.7 | 87.3 | 99.9 | 88 | 78.2 | 84.9 | 94.1 | 94 | 93 | 83.5 | 81.4 | 90.8 | 90 | 89.6 | 89.2 |
| O=[S+]([O-])(CCSSCC[S+](=O)([O-])[O][Na])[O][Na] | 105 | 110 | 114 | 124 | 121 | 124 | 129 | 120 | 126 | 123 | 129 | 97.4 | 111 | 107 | 111 | 121 | 116 | 133 | 132 | 124 | 119 | 118 | 108 | 133 | 119 | 127 | 134 | 127 | 134 | 126 | 130 | 139 | 133 |
| CC1=CC=C2\N=C/3N(CC[C@@]3(O)C(=O)C2=C1)C4=CC=CC=C4 | 97.2 | 98.3 | 94.9 | 94.6 | 99.3 | 88.8 | 92.1 | 95.3 | 82 | 86.6 | 89.5 | 84.8 | 82.3 | 92 | 90.2 | 92.4 | 89.2 | 89 | 90.2 | 83.8 | 86.7 | 86.9 | 95.4 | 86 | 84.1 | 83.1 | 84.5 | 81.1 | 90 | 82.1 | 81.9 | 76.4 | 78.7 |
| CCOC(CN1C(=O)[C@](CC(=O)Nc2ccc(C)cc2)(NC(=O)Nc2ccc(C)cc2)c2ccccc21)OCC | 103 | 105 | 109 | 111 | 105 | 109 | 115 | 108 | 111 | 111 | 19.8 | 102 | 107 | 101 | 108 | 105 | 105 | 105 | 117 | 101 | 106 | 34.8 | 100 | 104 | 93.7 | 107 | 102 | 104 | 116 | 96.3 | 102 | 98 | 37.6 |
| NC1CCC(Nc2nc(Nc3ccc(C(=O)N4CCCCC4)cc3)c3ncn(-c4cccc(F)c4)c3n2)CC1 (configuration not stated) | 110 | 112 | 115 | 117 | 112 | 126 | 120 | 121 | 124 | 137 | 134 | 116 | 119 | 120 | 125 | 120 | 128 | 125 | 124 | 126 | 139 | 123 | 112 | 108 | 120 | 119 | 121 | 123 | 118 | 118 | 129 | 139 | 130 |
| CCc1c(O)cc(O)c(C(=O)c2ccc(OCCN3CCOCC3)c(OC)c2)c1CC(=O)N(CCOC)CCOC | 102 | 105 | 118 | 112 | 112 | 105 | 104 | 87.6 | 59.9 | 41.1 | 40.9 | 100 | 101 | 113 | 105 | 108 | 103 | 93.5 | 78 | 41.1 | 32.7 | 35.4 | 106 | 102 | 105 | 110 | 110 | 104 | 85 | 84.5 | 42.6 | 32 | 35 |
| O=C(NCCO[N+](=O)[O-])c1cccnc1 | 112 | 113 | 118 | 122 | 115 | 117 | 115 | 116 | 113 | 121 | 118 | 112 | 126 | 120 | 130 | 121 | 119 | 126 | 126 | 127 | 126 | 118 | 112 | 116 | 109 | 114 | 111 | 123 | 111 | 112 | 112 | 111 | 117 |
| CCCCCCCCOc1ccccc1C(=O)Nc1ccc(C(=O)OCC[N+](C)(CC)CC)cc1 | 93.6 | 94.9 | 98.2 | 95.8 | 97.7 | 98.3 | 89.1 | 91.4 | 85.6 | 84.2 | 71.8 | 91.6 | 102 | 89.9 | 107 | 104 | 104 | 93.4 | 91.3 | 85.2 | 87.7 | 49 | 89.3 | 83.5 | 88.2 | 90.3 | 95 | 86.2 | 91 | 90.3 | 78.6 | 83.4 | 46.4 |
| Cn1cc(-c2cnn3c(N)c(Br)c([C@@H]4CCCNC4)nc23)cn1 | 96.1 | 102 | 99.5 | 97.5 | 102 | 99.7 | 91.3 | 86.4 | 16.8 | 5.55 | 6.43 | 91.6 | 98.8 | 94 | 100 | 93.4 | 96.5 | 93.8 | 77.3 | 13.1 | 3.15 | 3.91 | 86.9 | 103 | 95.9 | 95.1 | 89.8 | 99 | 90.2 | 77.3 | 12.2 | 4.05 | 5.37 |
| CCCCOc1ccc(CC(=O)NO)cc1 | 108 | 108 | 108 | 110 | 111 | 102 | 102 | 105 | 107 | 97.5 | 67.7 | 115 | 115 | 102 | 116 | 109 | 111 | 105 | 101 | 100 | 96.4 | 59.1 | 114 | 109 | 113 | 108 | 110 | 104 | 108 | 106 | 98.3 | 92.4 | 59.2 |
| O=[S+]([O-])(O)c1ccc2cc(/N=N/c3cc([S+](=O)([O-])O)c4cccnc4c3O)ccc2c1 | 123 | 123 | 125 | 110 | 126 | 120 | 124 | 111 | 108 | 113 | 58.8 | 131 | 124 | 121 | 109 | 126 | 112 | 115 | 111 | 113 | 113 | 59.2 | 135 | 125 | 114 | 110 | 114 | 122 | 117 | 114 | 113 | 101 | 56.4 |
